Experimental data reported in patent publication US4045433A, “1,3,4,5-Tetrahydro-2H-1,4-benzodiazepin-2-ones” (priority 1974, dated 1977).
Entries after “also recorded” stand apart in the source; their conditions may differ. Like-named read-outs stand apart in the source and are kept apart here.

Legend:
[1] = test system: CFLP mice; assay: Antimetrazole activity (protection from tonic extensor spasm); format: in vivo; conditions: for ED50: Mus musculus, 1 h
Protocol: 1. The first series of examinations was carried out according to the method of Everett and Richards (Everett G. M., Richards R. K.: J. Pharm. Exp. Ther. 81, 402 (1944)). 125 mg./kg. of metrazole were administered subcutaneously to the test animals. 1 hour after the administration the animals protected from tonic extensor spasm and the surviving animals were counted.

[2] = test system: CFLP mice; assay: Maximum electroshock (anti-electroshock activity); format: in vivo; conditions: 1 hour before test; for ED50: Mus musculus, 1 h
From the text: 2. Maximum electroshock stimulus (100 Hz, 30 V, 0.2 sec.) was applied according to the method of Swinyard et al. (Swinyard E. A., Brown W. C., Goodman, L. S.: J. Pharmacol. 106, 319 (1952)). The animals showing no tonix extension on the hind limb upon stimulus were considered as protected.

[3] = test system: CFLP mice; assay: Hexobarbital narcosis potentiating effect; format: in vivo; conditions: screen test, i.p., 1 hour before hexobarbital 60 mg./kg. into tail vein; change of sleeping period related to controls
Protocol: The hexobarbital narcosis potentiating effect was determined by the method of Rumke et al. (Arch. Int. […]. The change of sleeping period was expressed in percent related to the controls.

[4] = Acute toxicity; format: in vivo, CFLP mice; conditions: mouse, in vivo, death rate observed for one week
[5] = Rotarod test (muscle incoordination and ataxia); format: in vivo, CFLP mice; conditions: mouse, in vivo, 1 hour before test
Protocol: (§1) a. Rotarod test: The test was carried out according to the method of Kinnard and Carr (Brit. J. Pharmacol. Exp. Ther. 121, 354 (1957)). […] The ED50 values were calculated from the percentage of the animals falling down within 120 sec.

[6] = test system: CFLP mice; assay: Antagonism of strychnine spasm; format: in vivo; conditions: for ED50: Mus musculus, po, 1 h, read-out: Antistrychnine activity ED50; for Antistrychnine ED50 : Antimetrazole: ratio (2) of Table 2, p.o.
Protocol: Tonic extensor spasm was produced by administering an intraperitoneal dosage of 2 mg./kg. of strychnine to the animals (Kerley T. L., Richards A. G., Begley, R. W., Abren, B. E. and Weaver, L. C: J. Pharmacol. Exp. Ther. 132, 360 (1961)). The animals showing no spasm were considered as protected.

[7] = test system: CFLP mice; assay: Rotarod test (muscle incoordination and ataxia); format: in vivo; conditions: for Rotarod ED50 : Antimetrazole ED50: ratio (1) of Table 2, p.o.
Protocol: as §1

[8] = Traction test (muscle incoordination and ataxia); set-up: species or system CFLP mice; conditions: mouse, in vivo, po, 1 hour before test; read-out: Traction test ED50
Protocol: b. Traction test: The test was carried out according to the method of Theobald et al. (Arch. int. Pharmacodyn. 148, 560 (1964)). The two anterior limbs of the test animals were placed onto a horizontal rod so as to let the animals clutch the rod. […] The ED50 values were calculated from the percentage of the animals showing negative response.

[9] = test system: CFLP mice; assay: Narcosis potentiating effect (sodium barbiturate); format: in vivo; conditions: for ED50: Mus musculus, po, 1 hour before sodium barbiturate 100 mg./kg. i.p.; for Narcosis potentiation ED50 : Antimetrazole ED50: ratio (3) of Table 2, p.o.
[10] = test system: CFLP mice; assay: Disappearance of righting reflex; format: in vivo; conditions: Mus musculus, po
[11] = test system: CFLP mice; assay: Acute toxicity; format: in vivo
[12] = test system: CFLP mice; assay: Sedative and muscle relaxant effects (overall assessment); format: in vivo; conditions: in words
[13] = ip, screen test, i.p., 1 hour before test, metrazole 125 mg./kg. s.c., read-out: Antimetrazole ED50
[14] = ip, screen test, i.p., read-out: Anti-electroshock ED50 ip.
[15] = ip, screen test, i.p., read-out: Rotarod ED50
[16] = po, p.o., 1 hour before test, metrazole 125 mg./kg. s.c., 95% confidence limit in next line, read-out: Antimetrazole activity ED50
[17] = po, p.o., 100 Hz, 30 V, 0.2 sec., read-out: Anti-electroshock activity ED50
[18] = po, 12/min., 120 sec., read-out: Rotarod test ED50
[19] = po, read-out: Acute toxicity (LD50)

Structure (SMILES) | ED50 [1, 13] [mg/kg] | ED50 [2, 14] [mg/kg] | Hexobarbital potentiation, % [3] [%] | LD50 at 168 h ([4]; ip, read-out: LD50 i.p.) [mg/kg] | other results
CNC(=O)N1CC(=O)Nc2ccc(Cl)cc2C1c1ccccc1 (stereo not shown) [Example 16, 4-Methylcarbamoyl-5-phenyl-7-chloro-1,3,4,5-tetrahydro-2H-1,4-benzodiazepine-2-one] | 4.1 | 14 | 104 | 800 | 
CNC(=O)N1CC(=O)Nc2ccc([N+](=O)[O-])cc2C1c1ccccc1 (stereo not shown) [Example 14, 4-Methylcarbamoyl-5-phenyl-7-nitro-1,3,4,5-tetrahydro-2H-1,4-benzodiazepine-2-one] | 19.5 | 20 | 75 | 936 | 
CNC(=O)N1CC(=O)Nc2ccccc2C1c1ccccc1 (stereo not shown) [Example 15, 4-Methylcarbamoyl-5-phenyl-1,3,4,5-tetrahydro-2H-1,4-benzodiazepine-2-one] | 20 | 20 | 93 | > 500 | 
NC(=O)N1CC(=O)Nc2ccc(Cl)cc2C1c1ccccc1 (stereo not shown) [Example 13, 4-Carbamoyl-5-phenyl-7-chloro-1,3,4,5-tetrahydro-2H-1,4-benzodiazepine-2-on] | 4.9 | 14 | 89 | 367 | TD50 at 1 h [5, 15]: 13.5 mg/kg
CC(NC(=O)N1CC(=O)N(C)c2ccc(Cl)cc2C1c1ccccc1)c1ccccc1 (stereo not shown) [Example 24, 1-Methyl-4-(1-methyl-benzylcarbamoyl)-5-phenyl-7-chloro-1,3,4,5-tetrahydro-2H-1,4-benzodiazepine-2-one] | 13.5 | 20 | 96 | 271 | 
CN1C(=O)CN(C(N)=O)C(c2ccccc2)c2cc(Cl)ccc21 (racemic) [Compound "A", 1-methyl-4-carbamoyl-5-phenyl-7-chloro-1,3,4,5-tetrahydro-2H-1,4-benzodiazepine-2-one] |  |  |  |  | ED50 [1, 16]: 0.66 mg/kg; tetrachor spasm inhibiting effect / anticonvulsive effect compared with Diazepam ([1]; in words, vs Diazepam): practically identical to that of Diazepam; animals protected against metrazole spasm ([1]; single intravenous dosage of 5 mg./kg., 7 hours after administration): 50%; ED50 [2, 17]: 19.3 mg/kg; ED50 [6]: 26 mg/kg; Antistrychnine ED50 : Antimetrazole [6]: 39.4; TD50 at 1 h [5, 18]: 6.7 mg/kg; Rotarod ED50 : Antimetrazole ED50 [7]: 10.2; TD50 at 1 h [8]: 26.9 mg/kg; ED50 [9]: 8.8 mg/kg; Narcosis potentiation ED50 : Antimetrazole ED50 [9]: 13.3; ED50 [10]: 1400 mg/kg; LD50 at 168 h [4, 19]: 1680 mg/kg; therapeutic index compared with Diazepam ([11]; in words): more favourable; sedative and muscle relaxant effects compared with Diazepam [12]: provokes muscle relaxation and sedation only in higher dosages; also recorded: much lower; relation of the effects to those of the reference substances ([12]; vs Chlorodiazepoxide and Diazepam): more closely related to those of Chlorodiazepoxide than of Diazepam; dosages provoking muscle incoordination, muscle relaxation, and narcosis potentiation in relation to the dosage provoking anticonvulsive effect ([12]; vs reference substances Diazepam and Chlorodiazepoxide): clearly more advantageous than the reference substances
CCOC(=O)N1CC(=O)Nc2ccc([N+](=O)[O-])cc2C1c1ccccc1 (stereo not shown) [Example 2, 4-Ethoxycarbonyl-5-phenyl-7-nitro-1,3,4,5-tetrahydro-2H-1,4-benzodiazepine-2-one] | 12.5 | 14 | 168 | > 1600 | 
CC(=O)N1CC(=O)N(C)c2ccc(Cl)cc2C1c1ccccc1 (stereo not shown) [Example 28, 1-Methyl-4-acetyl-5-phenyl-7-chloro-1,3,4,5-tetrahydro-2H-1,4-benzodiazepine-2-one] | 7 | 20 | 125 | 312 | 
CN1C(=O)CN(C(N)=O)C(c2ccccc2)c2cc(Cl)ccc21 (single isomer, unassigned; (+)) [Example 55, (+)-1-Methyl-4-carbamoyl-5-phenyl-7-chloro-1,3,4,5-tetrahydro-2H-1,4-benzodiazepine-2-one] | 1.65 | 10 | 368 | 611 | TD50 at 1 h [5, 15]: 7 mg/kg
CNC1=Nc2ccc(Cl)cc2C(c2ccccc2)=[N+]([O-])C1 [Chlorodiazepoxide, reference compound] |  |  |  |  | ED50 [1, 16]: 2.47 mg/kg; ED50 [2, 17]: 23.5 mg/kg; ED50 [6]: 28.4 mg/kg; Antistrychnine ED50 : Antimetrazole [6]: 11.5; TD50 at 1 h [5, 18]: 12.2 mg/kg; Rotarod ED50 : Antimetrazole ED50 [7]: 4.9; TD50 at 1 h [8]: 31.2 mg/kg; ED50 [9]: 8.1 mg/kg; Narcosis potentiation ED50 : Antimetrazole ED50 [9]: 3.3; ED50 [10]: 436 mg/kg; LD50 at 168 h [4, 19]: 850 mg/kg
CN1C(=O)CN(C(=O)c2ccccc2Cl)C(c2ccccc2)c2cc(Cl)ccc21 (stereo not shown) [Example 31, 1-Methyl-4-(o-chlorobenzoyl)-5-phenyl-7-chloro-1,3,4,5-tetrahydro-2H-1,4-benzodiazepine-2-one] | 14 | 20 | 85 | > 1600 | 
CN1C(=O)CN(C=O)C(c2ccccc2)c2cc(Cl)ccc21 (stereo not shown) [Example 33, 1-Methyl-4-formyl-5-phenyl-7-chloro-1,3,4,5-tetrahydro-2H-1,4-benzodiazepine-2-one] | 3.4 | 14 | 110 | 688 | TD50 at 1 h [5, 15]: 23 mg/kg
CCCCNC(=O)N1CC(=O)Nc2ccc([N+](=O)[O-])cc2C1c1ccccc1 (stereo not shown) [Example 18, 4-n-Butylcarbamoyl-5-phenyl-7-nitro-1,3,4,5-tetrahydro-2H-1,4-benzodiazepine-2-one] | 14 | 20 | 77 | 320 | 
CN1C(=O)CN=C(c2ccccc2)c2cc(Cl)ccc21 [Diazepam] |  |  |  |  | ED50 [1, 16]: 0.75 mg/kg; ED50 [2, 17]: 8.29 mg/kg; ED50 [6]: 5.71 mg/kg; Antistrychnine ED50 : Antimetrazole [6]: 7.6; Rotarod ED50 : Antimetrazole ED50 [7]: 4.3; ED50 [9]: 3.9 mg/kg; Narcosis potentiation ED50 : Antimetrazole ED50 [9]: 5.2; ED50 [10]: 238 mg/kg
CN1C(=O)CN(C(N)=O)C(c2ccccc2)c2cc(Cl)ccc21 (single isomer, unassigned; (-)) [Example 56, (-)-1-Methyl-4-carbamoyl-5-phenyl-7-chloro-1,3,4,5-tetrahydro-2H-1,4-benzodiazepine-2-one] |  |  | 112 |  | Antimetrazole ED50 ([1]; screen test, i.p., 1 hour before test, metrazole 125 mg./kg. s.c., 60 min): 2.2 mg/kg; Anti-electroshock ED50 ip. ([2]; screen test, i.p., 60 min): 8.4 mg/kg; Rotarod ED50 ([7]; screen test, i.p., 1 hour before test, 60 min): 13.0 mg/kg; LD50 i.p. ([11]; i.p., death rate observed for one week, 10080 min): 661.2 mg/kg
